Numbered stars: 1 amine (or outer) side, 2 acyl side, 3 side chain; on linkers, the order of the positions; unused ones are H or OH. Bridge positions count the residues as written; N and C are the ends. Square brackets hold non-standard residues; d marks the D form. Peptide text beside a SMILES is read from it. * marks the point of attachment. hPhe(3-Cl-4-CF3) = N[C@@H](CCc1ccc(C(F)(F)F)c(Cl)c1)C(=O)O; hPhe(3-F,4-CF3) = N[C@@H](CCc1ccc(C(F)(F)F)c(F)c1)C(=O)O; X102 = O=C([C@H](CCOc1ccc(Cl)cc1)N[*:1])[*:2]; 3Oxa8azabicyclo(3.2.1)octane = C1CC2COCC1N2*; NMePhe(4-Cl) = CN[C@@H](Cc1ccc(Cl)cc1)C(=O)O; X83 = Cc1ccc(CC[C@H](N[*:1])C(=O)[*:2])cc1; hPhe(4-Cl) = N[C@@H](CCc1ccc(Cl)cc1)C(=O)O; NMeGly(cPent) = CN[C@H](C(=O)O)C1CCCC1; Phe(3-I) = N[C@@H](Cc1cccc(I)c1)C(=O)O; NMeAla(cPr) = CN[C@@H](CC1CC1)C(=O)O; NMeCha = CN[C@@H](CC1CCCCC1)C(=O)O; NEtLeu = CCN[C@@H](CC(C)C)C(=O)O; NMeAhp(2) = CCCCC[C@H](NC)C(=O)O; NMeChg = CN[C@H](C(=O)O)C1CCCCC1; NMeF = CN[C@@H](Cc1ccccc1)C(=O)O; NMeI = CC[C@H](C)[C@H](NC)C(=O)O; NMeD = CN[C@@H](CC(=O)O)C(=O)O; NMeL = CN[C@@H](CC(C)C)C(=O)O; NMeV = CN[C@H](C(=O)O)C(C)C; d(β3hA) = C[C@@H](N)CC(=O)O; NMeS = CN[C@@H](CO)C(=O)O; NMeA = CN[C@@H](C)C(=O)O; Piperidide = C1CCN(*)CC1; Pyrrolidide = C1CCN(*)C1; Ac5c = NC1(C(=O)O)CCCC1; Aze = O=C(O)[C@@H]1CCN1; Sar = CNCC(=O)O; Propyl = CCC*

This is an account of results in patent US20240148821A1, “PHARMACEUTICAL USE OF CYCLIC PEPTIDE COMPOUND” (CHUGAI SEIYAKU KABUSHIKI KAISHA, priority 2021, published 2024).

The target in this assay is protein-protein interaction between Kras and SOS1 (biotin-tagged human Kras loaded with GDP, His-tagged human SOS1) (Homo sapiens (Human), UniProt P01116, G12D). Put plainly: Protein-protein interaction inhibition between Kras and SOS1 (KrasG12D-SOS PPI) using AlphaScreen.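 Note: kras produced in E. coli, Ni-coupled donor beads and streptavidin acceptor beads, excitation 680 nm with emission detected at 520–620 nm via singlet oxygen transfer.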 The format is biochemical. The note with it: AlphaScreen; biotin-tagged human Kras loaded with GDP, His-tagged human SOS1; read-out: KRAS G12D-SOS PPI IC50. For orientation: In Alpha technology, singlet oxygen from a donor bead excites a nearby acceptor bead.
Consider `CCCCC[C@H]1C(=O)N(C)CC(=O)N[C@@H](CCc2ccc(C(F)(F)F)c(Cl)c2)C(=O)N2CCC[C@H]2C(=O)NC2(CCCC2)C(=O)N(C)[C@@H](C(C)C)C(=O)N(C)[C@H](C(=O)N2CCCCC2)CC(=O)N(C)[C@@H](CC(C)C)C(=O)N[C@@H]([C@@H](C)CC)C(=O)N(C)[C@@H](C)C(=O)N2CC[C@H]2C(=O)N1C` [Compound 1854] ([NMeL]I[NMeA][Aze][NMeAhp(2)][Sar][hPhe(3-Cl-4-CF3)]P[Ac5c][NMeV][NMeD]-Piperidide; lactam N-11), for which the half-maximal inhibitory concentration (IC50) (in general, the point on the concentration scale where inhibition reaches its midpoint) worked out at 5.5 nM.
As for `CC[C@H](C)[C@@H]1NC(=O)[C@H](CC(C)C)N(C)C(=O)C[C@@H](C(=O)N2CCCCC2)N(C)C(=O)[C@H](C(C)C)N(C)C(=O)C2(CCCC2)NC(=O)[C@@H]2CCCN2C(=O)[C@H](CCc2ccc(Cl)cc2)NC(=O)CN(C)C(=O)[C@H](CC2CCCCC2)N(C)C(=O)[C@@H]2CCN2C(=O)CN(C)C1=O` [Compound 916] ([NMeL]I[Sar][Aze][NMeCha][Sar][hPhe(4-Cl)]P[Ac5c][NMeV][NMeD]-Piperidide; lactam N-11), the IC50 came to 42 nM.
`CC[C@H](C)[C@@H]1NC(=O)[C@H](C)N(C)C(=O)C[C@@H](C(=O)N2CCCCC2)N(C)C(=O)[C@H](C2CCCCC2)N(C)C(=O)C2(CCCC2)NC(=O)[C@@H]2CCCN2C(=O)[C@H](CCOc2ccc(Cl)cc2)NC(=O)CN(C)C(=O)[C@H](CC2CCCCC2)N(C)C(=O)CN(C)C(=O)CN(C)C1=O` [Compound 2040, (3S,9S,18S,21S,25S,28S,34S)-3-[2-(4-chlorophenoxy)ethyl]-28-cyclohexyl-9-(cyclohexylmethyl)-7,10,13,16,21,22,26,29-octamethyl-18-[(1S)-1-methylpropyl]-25-(piperidine-1-carbonyl)spiro[1,4,7,10,13,16,19,22,26,29,32-undecazabicyclo[32.3.0]heptatriacontane-31,1-cyclopentane]-2,5,8,11,14,17,20,23,27,30,33-undecone] ([NMeA]I[Sar][Sar][NMeCha][Sar][X102]P[Ac5c][NMeChg][NMeD]-Piperidide; lactam N-11): the IC50 came out at 150 nM.
To `CC[C@H](C)[C@@H]1NC(=O)[C@H](C)N(C)C(=O)C[C@@H](C(=O)N2CCCCC2)N(C)C(=O)[C@H](C(C)C)N(C)C(=O)C2(CCCC2)NC(=O)[C@@H]2CCCN2C(=O)[C@H](CCc2ccc(C)cc2)NC(=O)CN(C)C(=O)[C@H](CC2CCCCC2)N(C)C(=O)[C@@H]2CCN2C(=O)[C@H](C)N(C)C1=O` [Compound 976] ([NMeA]I[NMeA][Aze][NMeCha][Sar][X83]P[Ac5c][NMeV][NMeD]-Piperidide; lactam N-11) belongs 180 nM.
For `CCCOC[C@H]1C(=O)N(C)CC(=O)N[C@@H](CCc2ccc(C(F)(F)F)c(Cl)c2)C(=O)N2CCC[C@H]2C(=O)NC2(CCCC2)C(=O)N(C)[C@@H](C2CCCC2)C(=O)N(C)[C@H](C(=O)N2C3CCC2COC3)CC(=O)N(CC)[C@@H](CC(C)C)C(=O)N[C@@H]([C@@H](C)CC)C(=O)N(C)[C@@H](C)C(=O)N2CC[C@H]2C(=O)N1C` [Compound 1193] ([NEtLeu]I[NMeA][Aze][NMeS](Propyl)[Sar][hPhe(3-Cl-4-CF3)]P[Ac5c][NMeGly(cPent)][NMeD]-{3Oxa8azabicyclo(3.2.1)octane}; lactam N-11), the IC50 was 2.1 nM.
In the case of `CC[C@H](C)[C@@H]1NC(=O)[C@H](CC2CCCCC2)N(C)C(=O)C[C@@H](C(=O)N2CCCCC2)N(C)C(=O)[C@H](C(C)C)N(C)C(=O)C2(CCCC2)NC(=O)[C@@H]2CCCN2C(=O)[C@H](CCc2ccc(C(F)(F)F)c(Cl)c2)NC(=O)CN(C)C(=O)[C@H](CC2CCCCC2)N(C)C(=O)[C@@H]2CCN2C(=O)[C@H](C)N(C)C1=O` [Compound 572] ([NMeCha]I[NMeA][Aze][NMeCha][Sar][hPhe(3-Cl-4-CF3)]P[Ac5c][NMeV][NMeD]-Piperidide; lactam N-11), the IC50 was 39 nM.
`CC[C@H](C)[C@@H]1NC(=O)[C@H](C)N(C)C(=O)C[C@@H](C)NC(=O)[C@H](CC(C)C)N(C)C(=O)[C@H](Cc2ccccc2)N(C)C(=O)[C@H](CC(C)C)NC(=O)[C@H](Cc2cccc(I)c2)NC(=O)CN(C)C(=O)[C@H](Cc2ccc(Cl)cc2)N(C)C(=O)CN(C)C(=O)CN(C)C1=O` [Compound 65] (cyclo(I[Sar][Sar][NMePhe(4-Cl)][Sar][Phe(3-I)]L[NMeF][NMeL][d(β3hA)][NMeA])): the IC50 was 240 nM.
With `CC[C@H](C)[C@@H]1NC(=O)[C@H](CC(C)C)N(C)C(=O)C[C@@H](C(=O)N2CCCCC2)N(C)C(=O)[C@H](C2CCCC2)N(C)C(=O)C2(CCCC2)NC(=O)[C@@H]2CCCN2C(=O)[C@H](CCc2ccc(C(F)(F)F)c(F)c2)NC(=O)CN(C)C(=O)[C@H](CC2CCCCC2)N(C)C(=O)[C@@H]2CCN2C(=O)[C@H](C)N(C)C1=O` [Compound 563] ([NMeL]I[NMeA][Aze][NMeCha][Sar][hPhe(3-F,4-CF3)]P[Ac5c][NMeGly(cPent)][NMeD]-Piperidide; lactam N-11), the IC50 was determined as 1.1 nM.
Turning to `CC[C@H](C)[C@@H]1NC(=O)[C@H](CC(C)C)N(C)C(=O)C[C@@H](C(=O)N2CCCC2)N(C)C(=O)[C@H]([C@@H](C)CC)N(C)C(=O)C2(CCCC2)NC(=O)[C@@H]2CCCN2C(=O)[C@H](CCc2ccc(C(F)(F)F)c(F)c2)NC(=O)CN(C)C(=O)[C@H](CC2CCCCC2)N(C)C(=O)[C@@H]2CCN2C(=O)[C@H](C)N(C)C1=O` [Compound 868] ([NMeL]I[NMeA][Aze][NMeCha][Sar][hPhe(3-F,4-CF3)]P[Ac5c][NMeI][NMeD]-Pyrrolidide; lactam N-11), the half-inhibitory concentration (IC50) was 2.9 nM.
To `CC[C@H](C)[C@@H]1NC(=O)[C@H](C2CCCC2)N(C)C(=O)C[C@@H](C(=O)N2CCCCC2)N(C)C(=O)[C@H](C(C)C)N(C)C(=O)C2(CCCC2)NC(=O)[C@@H]2CCCN2C(=O)[C@H](CCc2ccc(C(F)(F)F)c(Cl)c2)NC(=O)CN(C)C(=O)[C@H](CC2CCCCC2)N(C)C(=O)[C@@H]2CCN2C(=O)[C@H](C)N(C)C1=O` [Compound 225] ([NMeGly(cPent)]I[NMeA][Aze][NMeCha][Sar][hPhe(3-Cl-4-CF3)]P[Ac5c][NMeV][NMeD]-Piperidide; lactam N-11) belongs 15 nM; to `CCCOC[C@H]1C(=O)N(C)CC(=O)N[C@@H](CCc2ccc(C(F)(F)F)c(F)c2)C(=O)N2CCC[C@H]2C(=O)NC2(CCCC2)C(=O)N(C)[C@@H](C2CCCC2)C(=O)N(C)[C@H](C(=O)N2C3CCC2COC3)CC(=O)N(C)[C@@H](CC(C)C)C(=O)N[C@@H]([C@@H](C)CC)C(=O)N(C)[C@@H](C)C(=O)N2CC[C@H]2C(=O)N1C` [Compound 1030] ([NMeL]I[NMeA][Aze][NMeS](Propyl)[Sar][hPhe(3-F,4-CF3)]P[Ac5c][NMeGly(cPent)][NMeD]-{3Oxa8azabicyclo(3.2.1)octane}; lactam N-11), 1.7 nM.
As for `CC[C@H](C)[C@@H]1NC(=O)[C@H](CC2CC2)N(C)C(=O)C[C@@H](C)NC(=O)[C@H](C(C)C)N(C)C(=O)C2(CCCC2)NC(=O)[C@@H]2CCCN2C(=O)[C@H](CCc2ccc(C(F)(F)F)c(Cl)c2)NC(=O)CN(C)C(=O)[C@H](CC2CCCCC2)N(C)C(=O)[C@@H]2CCN2C(=O)[C@H](C)N(C)C1=O` [Compound 771] (cyclo([Ac5c][NMeV][d(β3hA)][NMeAla(cPr)]I[NMeA][Aze][NMeCha][Sar][hPhe(3-Cl-4-CF3)]P)), the figure is 25 nM.
